Several values for one entry are separate records, joined by “and”; a condition that tells them apart may be missing. Identical values can stand only once.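 Where inhibition never reached the appropriate level, the endpoint shown equals the highest concentration tested. Otherwise, values were interpolated linearly from a five-concentration, 48-hour dose response in 96-well plates. At the GI50, growth is halved. TGI: total growth inhibition.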
What was measured:
Experiment in all cases: NCI anticancer screen, dose series, 48 h
[1] = system: BT-549 breast
[2] = system: DU-145 prostate
[3] = system: HCT-116 colon
[4] = system: MCF7 breast
[5] = system: NCI/ADR-RES ovarian
[6] = system: OVCAR-3 ovarian
[7] = system: SK-MEL-5 melanoma
[8] = system: SNB-75 CNS
[9] = system: T-47D breast
[10] = system: HL-60(TB) leukemia

## Cn1c2ccccc2c(=O)c2c(O)cc3c(c21)C=CC1(CCCCC1)O3
[1]
  TGI: > 10 µM
[2]
  TGI: > 10 µM
[3]
  TGI: > 10 µM
[4]
  TGI: > 10 µM
[5]
  TGI: > 10 µM
[6]
  TGI: > 10 µM
[7]
  TGI: > 10 µM
[8]
  TGI: > 10 µM
[9]
  TGI: > 10 µM

## COc1ccc(N(C(=O)Nc2ccc(Cl)c(Cl)c2)C2c3cccn3C(=O)N2c2ccc(Cl)c(Cl)c2)cc1 (configuration not stated)
[1]
  TGI: > 100 µM
[2]
  TGI: > 100 µM
[3]
  TGI: > 100 µM
[10]
  TGI: > 100 µM
[4]
  TGI: > 100 µM
[5]
  TGI: > 100 µM
[7]
  TGI: > 100 µM

## CCOC(=O)c1nc2cc(C(F)(F)F)ccc2nc1Nc1ccc(C(=O)NC(C(=O)OCC)C(=O)OCC)cc1
[1]
  TGI: 51.6 µM
[2]
  TGI: > 100 µM
[3]
  TGI: 37.4 µM
[10]
  TGI: > 100 µM
[4]
  TGI: 57.2 µM
[6]
  TGI: > 100 µM
[7]
  TGI: 54.2 µM

## C=Cc1ccccc1C1(O)C=CC(OC)(OC)C=C1
[2]
  TGI: 68.8 µM
[3]
  TGI: 11.7 µM
[10]
  TGI: 6.38 µM
[4]
  TGI: 13.3 µM
[5]
  TGI: 29.4 µM
[6]
  TGI: 7.53 µM
[7]
  TGI: 26.9 µM
[8]
  TGI: 38.7 µM
[9]
  TGI: > 100 µM

## O=C1NCN(c2ccccc2)C12CCN(CCCN1CCN(CCOC(c3ccc(F)cc3)c3ccc(F)cc3)CC1)CC2
[1]
  TGI: 5.44 µM
[2]
  TGI: 3.34 µM
[3]
  TGI: 3.32 µM
[4]
  TGI: 3.99 µM
[5]
  TGI: 26.7 µM
[6]
  TGI: 3.86 µM
[7]
  TGI: 3.09 µM
[9]
  TGI: 3.09 µM

## CCCSc1nc(-c2ccc(OC)cc2)c(C#N)c(=O)n1C1OC(COC(C)=O)C(OC(C)=O)C(OC(C)=O)C1OC(C)=O (configuration not stated)
[3]
  GI50: > 100 µM
  TGI: > 100 µM
[10]
  TGI: > 100 µM
[6]
  GI50: > 100 µM and 35.3 µM
  TGI: > 100 µM
[8]
  TGI: > 100 µM

## COc1cc2c(c(O)c1OC)C(=O)C(Cc1ccc(O)cc1)CO2 (configuration not stated)
[2]
  TGI: > 100 µM
[3]
  TGI: > 100 µM
[10]
  TGI: 98.3 µM
[4]
  TGI: 8.65 µM
[5]
  TGI: 39.2 µM
[6]
  TGI: 26.4 µM
[7]
  TGI: 49 µM
[8]
  TGI: 81.4 µM
[9]
  TGI: 69.6 µM

## C1=C\SS/C=C\SS/1
[1]
  TGI: > 100 µM
[2]
  TGI: > 100 µM
[3]
  TGI: > 100 µM
[10]
  TGI: 35.4 µM
[4]
  TGI: 36.2 µM
[5]
  TGI: > 100 µM
[7]
  TGI: > 100 µM
[9]
  TGI: > 100 µM

## c1c2c(cc(-n3nnc4c3CCCCCC4)c1-n1nnc3c1CCCCCC3)CCCCCC2
[3]
  TGI: 21.6 µM
[10]
  TGI: > 100 µM
[6]
  TGI: 64.8 µM
[7]
  TGI: 24.7 µM
[8]
  TGI: 32.1 µM

## CCC(C(=O)C(=O)OC)P1(=O)OC(C)(C)CN1C(C)(C)C (configuration not stated)
[1]
  TGI: > 100 µM
[2]
  TGI: > 100 µM
[3]
  TGI: > 100 µM
[4]
  TGI: > 100 µM
[5]
  TGI: > 100 µM
[6]
  TGI: > 100 µM
[7]
  TGI: > 100 µM
[8]
  TGI: > 100 µM
[9]
  TGI: > 100 µM

## C=C1c2nc3ccccc3n2C=C(c2ccc(Cl)cc2)N1c1ccc(OC)cc1
[1]
  TGI: 6.88 µM
[2]
  TGI: 61.8 µM
[3]
  TGI: 21.6 µM
[10]
  TGI: > 100 µM
[4]
  TGI: 31.8 µM
[5]
  TGI: 14 µM
[6]
  TGI: 25.7 µM
[7]
  TGI: 46.2 µM
[8]
  TGI: 7.13 µM

## O=C1c2ccccc2NC(=S)[C@@H]2CCCN12
[1]
  TGI: > 100 µM
[2]
  TGI: > 100 µM
[3]
  TGI: > 100 µM
[4]
  TGI: > 100 µM
[5]
  TGI: > 100 µM
[6]
  TGI: > 100 µM
[7]
  TGI: > 100 µM
[8]
  TGI: > 100 µM
[9]
  TGI: > 100 µM

## CC(=O)OC1CCC2C3CCc4c(C)ccc(OS(=O)(=O)c5ccccc5)c4C3CCC12C (configuration not stated)
[1]
  TGI: > 100 µM
[2]
  TGI: > 100 µM
[3]
  TGI: 48.3 µM
[10]
  TGI: > 100 µM
[4]
  TGI: > 100 µM
[6]
  TGI: 46.7 µM
[7]
  TGI: 23.1 µM

Source: PubChem BioAssay (NCI)
